Source: US6414031B1, “Bisoximether derivatives, methods and intermediate products for the production thereof, and their use for combating fungicidal pests and animal pests” (BASF Aktiengesellschaft, priority 1998, dated 2002)

How the values were obtained:
Type in all cases: in vivo
[1] = test system: Puccinia recondita; assay: Curative activity against Puccinia recondita on wheat (leaf rust); conditions: 1 ppm, wheat sprayed 1 day after infection, assessed after 7 days, untreated 90%
From the text: (§1) The active ingredients, separately or together, were formulated as a 10% emulsion in a mixture of 70% by weight of […], 20% by weight of Nekanil® LN (Lutensol® AP6, wetter having emulsifying and dispersant action, based on ethoxylated alkylphenols) and 10% by weight of Wettol® EM (non-ionic emulsifier based on ethoxylated castor oil) and diluted with water to give the desired concentration.
Leaves of wheat seedling cv. “Kanzler” grown in pots were dusted with leaf rust spores (Puccinia recondita). The pots were then placed for 24 hours into a chamber with high atmospheric humidity (90 to 95%) and 20 to 22° C. During this time, the spores germinated and the germ tubes penetrated the leaf tissue. Next day, the infected plants were sprayed to runoff with an aqueous active ingredient preparation made with a stock solution consisting of 10% of active ingredient, 63% of cyclohexanone and 27% of emulsifier. After the spray coating had dried on, the test plants were grown in the greenhouse for 7 days at temperatures between 20 and 22° C. and a relative atmospheric humidity of 65 to 70%. The extent of rust development on the leaves was then determined.

[2] = test system: Aphis fabae; assay: Action against Aphis fabae, contact action; conditions: infested dwarf beans (Vicia faba), mortality after 24 hours
From the text: (§2) The active ingredients were formulated
(§3) a. as a 0.1% strength solution in acetone or
(§4) b. as a 10% emulsion in a mixture of 70% by weight of cyclohexanone, 20% by weight of Nekanil® LN (Lutensol® AP6, wetter having emulsifying and dispersant action, based on ethoxylated alkylphenols) and 10% by weight of Wettol® EM (non-ionic emulsifier based on ethoxylated castor oil)
(§5) and diluted to give the desired concentration, using acetone in the case of a. and water in the case of b.
Severely infested dwarf beans (Vicia faba) in the four-leaf stage were treated with aqueous formulations of active ingredient. The mortality rate was determined after 24 hours.

[3] = test system: Nephotettix cincticeps; assay: Action against Nephotettix cincticeps, contact action (filter disks); conditions: treated filter disks, adult leafhoppers, mortality after 24 hours
From the text: as §2, §3, §4, §5
Filter disks (Ø 9 cm) were treated with 1 ml of aqueous formulations of the active ingredient and subsequently populated with five adult leafhoppers. The mortality was determined after 24 hours.

[4] = test system: Nephotettix cincticeps; assay: Action against Nephotettix cincticeps (crop spray experiment); conditions: sprayed rice plants, adult leafhoppers, mortality after 24 hours
From the text: as §2, §3, §4, §5
Rice plants grown in pots (plant height approximately 8 cm) were sprayed to runoff point with aqueous formulations of active ingredients. After drying, the plants were populated with 20 adult leafhoppers. The mortality was determined after 24 hours.

[5] = test system: Plasmopara viticola; assay: Activity against Plasmopara viticola on grape leaves (long-term action); conditions: 16 ppm, grape leaves inoculated 7 days after spraying; untreated 85%
From the text: as §1
Leaves of grapes cv. “Müller-Thurgaul” in pots were sprayed to runoff with aqueous active ingredient preparations made with a stock solution of 10% active ingredient, 63% cyclohexanone and 27% of emulsifier. In order to be able to assess the long-term action of the substances, the spray coating was allowed to dry off and the plants were then placed in the greenhouse for 7 days. Only then were the leaves inoculated with an aqueous zoospore suspension of Plasmopara viticola. Then, the vines were first placed for 48 hours into a water-vapor-saturated chamber at 24° C. and then for 5 days in the greenhouse at temperatures between 20 and 30° C. After this time, the plants were returned to a humid chamber for 16 hours to accelerate sporangiophore eruption for 16 hours. The extent of the disease development on the undersides of the leaves was then determined visually.

| Compound | disease level (extent of rust development on the leaves) [1] | limit concentration (lowest concentration with 80 to 100% inhibition or mortality) [2] | limit concentration (lowest concentration with 80 to 100% inhibition or mortality) [3] | limit concentration (lowest concentration with 80 to 100% inhibition or mortality) [4] | disease level (undersides of the leaves) [5] |
| --- | --- | --- | --- | --- | --- |
| COC=C(C(=O)OC)c1ccccc1CON=C(C)C(=NOC)C1CCCCC1 [A] | 90% | 100 ppm | 0.2 mg | 400 ppm |  |
| CC=C(C(=O)OC)c1ccccc1CON=C(C)C(=NOC)C1CCCCC1 [B] |  |  | 0.2 mg | 400 ppm |  |
| CON=C(C(=O)OC)c1ccccc1CON=C(C)C(=NOC)C1CCCCC1 [C] |  | 100 ppm |  |  |  |
| COC=C(C(=O)OC)c1ccccc1CON=C(C)C(=NOC)C1CCC(C)CC1 (centres unmarked) [Compound I-3] |  |  | 0.04 mg |  |  |
| CC=C(C(=O)OC)c1ccccc1CON=C(C)C(=NOC)C1CCC(C)CC1 (centres unmarked) [Compound I-4] |  |  | 0.04 mg |  |  |
| CNC(=O)C(=NOC)c1ccccc1CON=C(C)C(=NOC)C1CCCCC1 [D] | 90% |  |  |  | 60% |
